Experiments:
[1] = tested on: mSOD1^(G93A) transgenic mice; conditions: mouse, in vivo
[2] = tested on: mSOD1^(G93A) transgenic mice
Source text: Transgenic mSOD1^(G93A) mice of both sexes were used in this study.

## O=C(O)CC(O)(CC(=O)O)C(=O)O.[O-][n+]1cccc(C(Cl)=NOC[C@H](O)CN2CCCCC2)c1 [compound A, (+)-R-N-[2-hydroxy-3-(1-piperidinyl)-propoxy]-pyridine-1-oxide-3-carboximidoyl chloride citrate]
[1]
  motoneurons surviving in the sciatic motor pool (mean +/- S.E.M.): 412+/−28
[2]; 10 mg/kg i.p. daily from 35 days of age, 120 days of age, n=10, p=0.030 vs untreated (43.3 ms), wild-type 25.8 ms
  half relaxation time of EDL (mean +/- S.E.M.): 32.2 ms
[2]; 10 mg/kg i.p. daily from 35 days of age, assessed at 120 days of age, n=10, p=0.003 vs untreated (8.3), wild-type 28
  motor units survived in EDL muscles (mean +/- S.E.M.): 14.3 +/−0.6
[2]; 10 mg/kg i.p. daily, 120 days of age, stimulation 40 Hz, 3 minutes, n=10, p<0.05 vs untreated (0.255), wild-type 0.848
  fatigue index (FI) of EDL (mean +/- S.E.M.): 0.416+/−0.07
[2]; treated mSOD1^(G93A) mice, n=7, untreated 125 days, endpoint: inability to right itself and loss of approximately 20% body weight
  average lifespan (mean +/- S.E.M.): 153 ± 2.6 days
[2]; treated vs untreated mSOD1^(G93A) mice
  decline in body weight: delayed
[2]; treated vs untreated mSOD1^(G93A) mice, p<0.001
  increase in lifespan: over 22%

Reference: patent publication US20150126551A1, “USE OF A […] HALIDE DERIVATIVE IN THE TREATMENT OF NEURODEGENERATIVE DISEASES” (Orphazyme ApS, priority 2003, published 2015)
